Key:
[1] = target: Gastrin/cholecystokinin type B receptor (Homo sapiens) (UniProt P32239); assay: CCK2 (human) CEREP ligand profiling; settings: Compound concentration 10.0 uM
[2] = target: Substance-P receptor (Homo sapiens) (UniProt P25103); assay: Neurokinin 1 (human) CEREP ligand profiling; settings: Compound concentration 10.0 uM
[3] = tested on: Tyrosine-protein kinase ABL1 (Homo sapiens), P00519 [Y253F]; settings: Compound concentration 1000.0 nM
[4] = target: Activin receptor type-2A (Homo sapiens) (UniProt P27037); settings: Compound concentration 1000.0 nM
[5] = target: Activin receptor type-2B (Homo sapiens) (UniProt Q13705); settings: Compound concentration 1000.0 nM
[6] = target: Cytoplasmic tyrosine-protein kinase BMX (Homo sapiens) (UniProt P51813); settings: Compound concentration 1000.0 nM
[7] = target: Cyclin-dependent kinase 19 (Homo sapiens) (UniProt Q9BWU1); settings: Compound concentration 1000.0 nM
[8] = target: Cyclin-dependent kinase 2 (Homo sapiens) (UniProt P24941); settings: Compound concentration 1000.0 nM
[9] = target: Cyclin-dependent kinase 7 (Homo sapiens) (UniProt P50613); settings: Compound concentration 1000.0 nM
[10] = target: Cyclin-dependent kinase-like 5 (Homo sapiens) (UniProt O76039); settings: Compound concentration 1000.0 nM
[11] = target: Serine/threonine-protein kinase Chk1 (Homo sapiens) (UniProt O14757); settings: Compound concentration 1000.0 nM
[12] = target: Casein kinase I isoform gamma-2 (Homo sapiens) (UniProt P78368); settings: Compound concentration 1000.0 nM
[13] = target: Casein kinase II subunit alpha' (Homo sapiens) (UniProt P19784); settings: Compound concentration 1000.0 nM
[14] = target: Serine/threonine-protein kinase DCLK2 (Homo sapiens) (UniProt Q8N568); settings: Compound concentration 1000.0 nM
[15] = target: Epithelial discoidin domain-containing receptor 1 (Homo sapiens) (UniProt Q08345); settings: Compound concentration 1000.0 nM
[16] = target: Serine/threonine-protein kinase 17A (Homo sapiens) (UniProt Q9UEE5); settings: Compound concentration 1000.0 nM
[17] = target: Ephrin type-A receptor 3 (Homo sapiens) (UniProt P29320); settings: Compound concentration 1000.0 nM
[18] = target: Ephrin type-B receptor 3 (Homo sapiens) (UniProt P54753); settings: Compound concentration 1000.0 nM
[19] = target: Receptor tyrosine-protein kinase erbB-2 (Homo sapiens) (UniProt P04626); settings: Compound concentration 1000.0 nM
[20] = tested on: Receptor-type tyrosine-protein kinase FLT3 (Homo sapiens), P36888 [UNDEFINED MUTATION]; settings: Compound concentration 1000.0 nM
[21] = target: Tyrosine-protein kinase Lck (Homo sapiens) (UniProt P06239); settings: Compound concentration 1000.0 nM
[22] = target: MAP kinase-activated protein kinase 5 (Homo sapiens) (UniProt Q8IW41); settings: Compound concentration 1000.0 nM
[23] = target: Microtubule-associated serine/threonine-protein kinase 1 (Homo sapiens) (UniProt Q9Y2H9); settings: Compound concentration 1000.0 nM
[24] = target: Dual specificity mitogen-activated protein kinase kinase 2 (Homo sapiens) (UniProt P36507); settings: Compound concentration 1000.0 nM
[25] = target: Dual specificity mitogen-activated protein kinase kinase 4 (Homo sapiens) (UniProt P45985); settings: Compound concentration 1000.0 nM
[26] = target: Hepatocyte growth factor receptor (Homo sapiens) (UniProt P08581); settings: Compound concentration 1000.0 nM
[27] = target: Serine/threonine-protein kinase Nek3 (Homo sapiens) (UniProt P51956); settings: Compound concentration 1000.0 nM
[28] = target: Serine/threonine-protein kinase Nek9 (Homo sapiens) (UniProt Q8TD19); settings: Compound concentration 1000.0 nM
[29] = target: Phosphatidylinositol 4-phosphate 3-kinase C2 domain-containing subunit beta (Homo sapiens) (UniProt O00750); settings: Compound concentration 1000.0 nM
[30] = tested on: Phosphatidylinositol 4,5-bisphosphate 3-kinase catalytic subunit alpha isoform (Homo sapiens), P42336 [H1047Y]; settings: Compound concentration 1000.0 nM
[31] = target: Phosphatidylinositol 4-kinase beta (Homo sapiens) (UniProt Q9UBF8); settings: Compound concentration 1000.0 nM
[32] = target: Serine/threonine-protein kinase PknB (Mycobacterium tuberculosis) (UniProt P9WI81); settings: Compound concentration 1000.0 nM
[33] = target: Protein kinase C theta type (Homo sapiens) (UniProt Q04759); settings: Compound concentration 1000.0 nM
[34] = tested on: Proto-oncogene tyrosine-protein kinase receptor Ret (Homo sapiens), P07949 [M918T]; settings: Compound concentration 1000.0 nM
[35] = tested on: Proto-oncogene tyrosine-protein kinase receptor Ret (Homo sapiens), P07949 [V804L]; settings: Compound concentration 1000.0 nM
[36] = target: Receptor-interacting serine/threonine-protein kinase 1 (Homo sapiens) (UniProt Q13546); settings: Compound concentration 1000.0 nM
[37] = target: Rho-associated protein kinase 2 (Homo sapiens) (UniProt O75116); settings: Compound concentration 1000.0 nM
[38] = target: Ribosomal protein S6 kinase alpha-3 (Homo sapiens) (UniProt P51812); settings: Compound concentration 1000.0 nM
[39] = target: Serine/threonine-protein kinase Sgk3 (Homo sapiens) (UniProt Q96BR1); settings: Compound concentration 1000.0 nM
[40] = target: TGF-beta receptor type-2 (Homo sapiens) (UniProt P37173); settings: Compound concentration 1000.0 nM
[41] = target: Activated CDC42 kinase 1 (Homo sapiens) (UniProt Q07912); settings: Compound concentration 1000.0 nM
[42] = target: Wee1-like protein kinase 2 (Homo sapiens) (UniProt P0C1S8); settings: Compound concentration 1000.0 nM
[43] = target: Serine/threonine-protein kinase WNK2 (Homo sapiens) (UniProt Q9Y3S1); settings: Compound concentration 1000.0 nM
[44] = target: 5-hydroxytryptamine receptor 3A (Homo sapiens) (UniProt P46098); settings: Compound concentration 10.0 uM
[45] = target: Sigma intracellular receptor 2 (Homo sapiens) (UniProt Q5BJF2); settings: Compound concentration 10.0 uM
Chain of Sigma intracellular receptor 2 (Homo sapiens) (Q5BJF2 whole entry): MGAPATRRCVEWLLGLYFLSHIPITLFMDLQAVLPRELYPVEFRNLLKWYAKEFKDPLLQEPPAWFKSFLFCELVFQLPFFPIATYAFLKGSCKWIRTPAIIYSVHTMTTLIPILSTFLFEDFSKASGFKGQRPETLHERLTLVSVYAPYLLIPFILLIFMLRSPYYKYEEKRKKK

Chain of Rho-associated protein kinase 2 (Homo sapiens) (O75116 whole entry, looked up): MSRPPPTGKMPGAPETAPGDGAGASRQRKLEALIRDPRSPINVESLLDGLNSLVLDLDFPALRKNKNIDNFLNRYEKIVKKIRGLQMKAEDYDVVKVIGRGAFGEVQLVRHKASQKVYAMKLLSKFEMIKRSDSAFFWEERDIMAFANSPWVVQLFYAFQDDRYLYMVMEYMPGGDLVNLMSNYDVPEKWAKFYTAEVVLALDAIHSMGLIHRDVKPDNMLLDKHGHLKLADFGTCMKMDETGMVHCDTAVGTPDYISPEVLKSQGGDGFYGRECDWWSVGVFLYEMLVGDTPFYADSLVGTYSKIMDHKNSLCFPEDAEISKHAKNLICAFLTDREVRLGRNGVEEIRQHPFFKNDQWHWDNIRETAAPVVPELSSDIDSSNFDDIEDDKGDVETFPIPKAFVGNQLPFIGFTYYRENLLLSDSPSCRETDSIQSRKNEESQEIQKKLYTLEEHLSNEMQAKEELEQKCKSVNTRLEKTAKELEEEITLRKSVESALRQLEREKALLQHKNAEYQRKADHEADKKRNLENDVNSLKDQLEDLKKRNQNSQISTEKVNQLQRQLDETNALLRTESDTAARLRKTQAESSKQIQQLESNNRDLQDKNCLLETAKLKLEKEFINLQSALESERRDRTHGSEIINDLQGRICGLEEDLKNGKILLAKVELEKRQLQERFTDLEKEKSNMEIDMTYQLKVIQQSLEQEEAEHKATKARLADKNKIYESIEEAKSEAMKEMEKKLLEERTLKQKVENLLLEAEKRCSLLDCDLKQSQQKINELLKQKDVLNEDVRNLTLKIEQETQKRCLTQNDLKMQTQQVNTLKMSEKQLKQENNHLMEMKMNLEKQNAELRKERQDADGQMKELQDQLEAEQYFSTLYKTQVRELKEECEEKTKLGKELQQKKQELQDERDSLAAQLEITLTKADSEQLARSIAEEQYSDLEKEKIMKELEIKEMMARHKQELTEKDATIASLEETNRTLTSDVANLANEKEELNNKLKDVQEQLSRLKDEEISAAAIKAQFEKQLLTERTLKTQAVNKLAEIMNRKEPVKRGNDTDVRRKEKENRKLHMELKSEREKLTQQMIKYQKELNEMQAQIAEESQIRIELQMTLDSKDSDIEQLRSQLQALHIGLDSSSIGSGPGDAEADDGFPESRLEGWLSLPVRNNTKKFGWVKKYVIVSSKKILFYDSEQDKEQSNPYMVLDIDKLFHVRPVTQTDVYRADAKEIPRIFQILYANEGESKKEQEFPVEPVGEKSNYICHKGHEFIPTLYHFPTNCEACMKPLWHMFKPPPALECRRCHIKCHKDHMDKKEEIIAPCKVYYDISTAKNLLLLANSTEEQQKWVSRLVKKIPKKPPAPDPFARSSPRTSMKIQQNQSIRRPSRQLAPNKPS
Chain of TGF-beta receptor type-2 (Homo sapiens) (P37173 whole entry): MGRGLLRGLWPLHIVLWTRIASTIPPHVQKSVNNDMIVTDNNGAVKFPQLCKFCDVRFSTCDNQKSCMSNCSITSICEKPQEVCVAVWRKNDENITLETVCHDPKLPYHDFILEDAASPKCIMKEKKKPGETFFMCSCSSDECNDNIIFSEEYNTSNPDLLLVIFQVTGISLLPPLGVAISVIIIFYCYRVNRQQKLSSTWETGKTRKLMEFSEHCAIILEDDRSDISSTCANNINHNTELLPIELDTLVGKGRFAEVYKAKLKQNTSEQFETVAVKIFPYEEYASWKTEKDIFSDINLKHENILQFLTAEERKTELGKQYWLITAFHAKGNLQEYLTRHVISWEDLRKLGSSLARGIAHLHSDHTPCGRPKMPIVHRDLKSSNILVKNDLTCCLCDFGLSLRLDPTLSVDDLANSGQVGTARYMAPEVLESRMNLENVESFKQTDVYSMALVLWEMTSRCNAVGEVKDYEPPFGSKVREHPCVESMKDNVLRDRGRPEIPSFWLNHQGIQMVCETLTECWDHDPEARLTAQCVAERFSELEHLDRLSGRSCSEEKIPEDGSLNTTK
Chain of Phosphatidylinositol 4-kinase beta (Homo sapiens) (Q9UBF8 2-816 limits assumed): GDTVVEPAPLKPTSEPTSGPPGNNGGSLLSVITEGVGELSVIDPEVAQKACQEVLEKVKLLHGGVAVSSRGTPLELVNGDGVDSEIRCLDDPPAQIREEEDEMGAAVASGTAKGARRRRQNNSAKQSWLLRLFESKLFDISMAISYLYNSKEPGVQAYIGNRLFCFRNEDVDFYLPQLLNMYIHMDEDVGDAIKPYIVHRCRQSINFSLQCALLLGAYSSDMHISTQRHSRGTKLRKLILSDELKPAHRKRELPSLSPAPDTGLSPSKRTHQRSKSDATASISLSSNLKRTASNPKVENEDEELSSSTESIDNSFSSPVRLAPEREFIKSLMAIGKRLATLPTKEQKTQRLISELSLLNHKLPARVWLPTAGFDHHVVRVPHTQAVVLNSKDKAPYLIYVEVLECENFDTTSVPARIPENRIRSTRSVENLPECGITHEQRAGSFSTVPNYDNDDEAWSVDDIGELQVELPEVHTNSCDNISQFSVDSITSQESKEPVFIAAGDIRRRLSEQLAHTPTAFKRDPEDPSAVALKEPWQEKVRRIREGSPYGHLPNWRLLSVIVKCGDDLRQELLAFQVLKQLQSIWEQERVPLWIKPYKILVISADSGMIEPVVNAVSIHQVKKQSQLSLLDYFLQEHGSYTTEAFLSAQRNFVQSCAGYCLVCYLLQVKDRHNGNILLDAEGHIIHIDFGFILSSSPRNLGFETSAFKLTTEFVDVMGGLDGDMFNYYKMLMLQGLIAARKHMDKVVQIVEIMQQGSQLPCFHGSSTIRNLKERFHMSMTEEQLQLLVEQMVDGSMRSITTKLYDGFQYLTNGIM
Chain of Epithelial discoidin domain-containing receptor 1 (Homo sapiens) (Q08345 whole entry, the tested form may be a part): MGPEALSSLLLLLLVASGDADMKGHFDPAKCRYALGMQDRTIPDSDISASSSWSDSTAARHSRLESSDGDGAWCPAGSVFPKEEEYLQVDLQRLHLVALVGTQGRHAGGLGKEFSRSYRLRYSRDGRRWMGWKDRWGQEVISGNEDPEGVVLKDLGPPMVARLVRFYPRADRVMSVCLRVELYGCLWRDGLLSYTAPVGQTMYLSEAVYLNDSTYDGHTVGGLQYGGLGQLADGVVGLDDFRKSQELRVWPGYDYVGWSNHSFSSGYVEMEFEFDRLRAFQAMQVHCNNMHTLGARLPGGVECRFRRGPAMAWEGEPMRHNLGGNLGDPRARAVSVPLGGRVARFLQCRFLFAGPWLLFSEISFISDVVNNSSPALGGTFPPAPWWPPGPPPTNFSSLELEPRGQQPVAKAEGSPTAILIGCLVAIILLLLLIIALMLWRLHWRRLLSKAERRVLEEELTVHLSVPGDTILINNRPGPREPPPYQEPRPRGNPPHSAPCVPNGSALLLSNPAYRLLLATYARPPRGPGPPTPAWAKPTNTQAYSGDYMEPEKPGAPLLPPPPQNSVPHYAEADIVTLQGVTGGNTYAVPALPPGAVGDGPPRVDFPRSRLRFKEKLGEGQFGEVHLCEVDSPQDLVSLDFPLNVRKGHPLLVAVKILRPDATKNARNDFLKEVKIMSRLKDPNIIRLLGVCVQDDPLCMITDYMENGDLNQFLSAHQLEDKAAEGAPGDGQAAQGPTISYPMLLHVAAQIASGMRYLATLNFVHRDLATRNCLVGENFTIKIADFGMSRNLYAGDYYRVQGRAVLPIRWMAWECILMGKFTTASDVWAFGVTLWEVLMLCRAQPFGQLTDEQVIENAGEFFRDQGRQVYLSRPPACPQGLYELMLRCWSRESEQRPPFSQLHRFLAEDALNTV
Chain of Dual specificity mitogen-activated protein kinase kinase 2 (Homo sapiens) (P36507 whole entry): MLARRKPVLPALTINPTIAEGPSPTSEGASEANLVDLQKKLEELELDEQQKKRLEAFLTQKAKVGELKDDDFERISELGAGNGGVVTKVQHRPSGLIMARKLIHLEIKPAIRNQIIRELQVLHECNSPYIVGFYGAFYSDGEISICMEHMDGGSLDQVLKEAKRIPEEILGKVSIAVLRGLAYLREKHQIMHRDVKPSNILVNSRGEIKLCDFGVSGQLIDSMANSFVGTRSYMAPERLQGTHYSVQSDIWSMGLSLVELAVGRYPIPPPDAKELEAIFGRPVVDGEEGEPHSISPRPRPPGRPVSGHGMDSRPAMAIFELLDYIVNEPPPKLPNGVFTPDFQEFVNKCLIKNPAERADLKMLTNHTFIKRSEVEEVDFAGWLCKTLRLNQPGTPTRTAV
Chain of Cyclin-dependent kinase 7 (Homo sapiens) (P50613 whole entry): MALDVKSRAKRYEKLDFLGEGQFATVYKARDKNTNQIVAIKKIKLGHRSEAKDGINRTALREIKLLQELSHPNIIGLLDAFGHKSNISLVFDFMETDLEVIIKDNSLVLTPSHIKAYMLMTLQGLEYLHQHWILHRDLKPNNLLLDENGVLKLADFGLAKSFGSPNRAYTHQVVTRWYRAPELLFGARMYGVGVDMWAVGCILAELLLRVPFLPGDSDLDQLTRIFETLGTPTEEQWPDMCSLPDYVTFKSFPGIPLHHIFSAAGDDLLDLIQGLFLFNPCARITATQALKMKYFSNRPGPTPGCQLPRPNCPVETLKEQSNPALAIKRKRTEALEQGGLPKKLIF
Chain of Casein kinase II subunit alpha' (Homo sapiens) (P19784 whole entry, looked up): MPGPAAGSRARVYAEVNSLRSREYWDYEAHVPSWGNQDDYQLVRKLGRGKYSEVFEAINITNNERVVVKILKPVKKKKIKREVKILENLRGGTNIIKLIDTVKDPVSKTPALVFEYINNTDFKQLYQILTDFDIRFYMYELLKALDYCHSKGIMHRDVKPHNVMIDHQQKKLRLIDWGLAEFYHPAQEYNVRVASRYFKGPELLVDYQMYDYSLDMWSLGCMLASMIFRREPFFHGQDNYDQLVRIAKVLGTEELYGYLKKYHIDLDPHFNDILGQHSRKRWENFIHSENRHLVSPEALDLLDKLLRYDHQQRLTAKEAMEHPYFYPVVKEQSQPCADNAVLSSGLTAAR

C[C@H](c1ccc(F)cc1)N(Cc1cccc(C(=O)O)c1)C(=O)c1cnc2ccccc2c1 [PF-05105679]
inactive: inhibition [1] 35% | inhibition [2] 18% | residual activity [3] 100% | residual activity [4] 100% | residual activity [5] 100% | residual activity [6] 99% | residual activity [7] 100% | residual activity [8] 100% | residual activity [9] 100% | residual activity [10] 100% | residual activity [11] 100% | residual activity [12] 100% | residual activity [13] 86% | residual activity [14] 100% | residual activity [15] 100% | residual activity [16] 86% | residual activity [17] 85% | residual activity [18] 100% | residual activity [19] 100% | residual activity [20] 100% | residual activity [21] 100% | residual activity [22] 96% | residual activity [23] 100% | residual activity [24] 100% | residual activity [25] 100% | residual activity [26] 100% | residual activity [27] 87% | residual activity [28] 100% | residual activity [29] 90% | residual activity [30] 100% | residual activity [31] 98% | residual activity [32] 94% | residual activity [33] 100% | residual activity [34] 86% | residual activity [35] 85% | residual activity [36] 100% | residual activity [37] 100% | residual activity [38] 100% | residual activity [39] 100% | residual activity [40] 100% | residual activity [41] 100% | residual activity [42] 100% | residual activity [43] 96% | inhibition [44] -1.19% | inhibition [45] 3.36%
